In patent US20250129070A1, “BIFUNCTIONAL ANDROGEN RECEPTOR COMPOUNDS” (priority 2023, published 2025):

What was measured:
AR / CBP ternary complex = experiment: Ternary complex formation assay (sandwich ELISA, AR capture / CBP detection) in VCaP cell lysates; type: cell-based; details: 1.5 hours treatment, sandwich ELISA (AR capture, CBP or p300 detection)
Outline: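 Anti-AR (AR 441)-coated plates capture AR from lysates of VCaP cells grown ≥3 days at 50K/well in 5% charcoal-stripped FBS, dosed with bifunctional for 1.5 h and lysed 30 min at 4 °C. Co-captured CBP/p300 is probed with rabbit mAb and HRP anti-rabbit, then QuantaRed fluorescence (570/585) is read at 0, 5 and 15 min.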

VCaP cells = experiment: VCaP growth inhibition assay; type: cell-based; details: 30 pM R1881, 9 days, CTG
Outline: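 Growth read by CTG luminescence after 9-day exposure to compound (final 100 nM–10 fM, 1:5 steps) plus 30 pM R1881, in phenol red-free DMEM with 5% CSS. Cells pre-incubated 72 h before dosing; IC50 by nonlinear 4-parameter regression.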

## CC(=O)N1CCc2c(c(N3CCCc4cc(-c5cnn(C)c5)c(C)cc43)nn2C2CCN(CC3C(C)CN(c4ncc(C(=O)NC5C(C)(C)C(Oc6ccc(C#N)c(Cl)c6)C5(C)C)cn4)CC3C)CC2)C1 (stereo not drawn) [Compound 444, 2-[4-[[4-[5-acetyl-3-[7-methyl-6-(1-methylpyrazol-4-yl)-3,4-dihydro-2H-quinolin-1-yl]-6,7-dihydro-4H-pyrazolo[4,3-c]pyridin-1-yl]-1-piperidyl]methyl]-3,5-dimethyl-1-piperidyl]-N-[3-(3-chloro-4-cyano-phenoxy)-2,2,4,4-tetramethyl-cyclobutyl]pyrimidine-5-carboxamide]
AR / CBP ternary complex
  EC50: < 1 nM
VCaP cells
  IC50: 0.1 to 1 nM

## CC(=O)N1CCc2c(c(N3CCCc4cc(-c5cnn(C)c5)c(C(F)F)cc43)nn2C2CCN(C3CN(c4ncc(C(=O)NC5C(C)(C)C(Oc6ccc(C#N)c(Cl)c6)C5(C)C)cn4)C3)CC2)C1 (stereo not drawn) [Compound 333, 2-[3-[4-[5-acetyl-3-[7-(difluoromethyl)-6-(1-methylpyrazol-4-yl)-3,4-dihydro-2H-quinolin-1-yl]-6,7-dihydro-4H-pyrazolo[4,3-c]pyridin-1-yl]-1-piperidyl]azetidin-1-yl]-N-[3-(3-chloro-4-cyano-phenoxy)-2,2,4,4-tetramethyl-cyclobutyl]pyrimidine-5-carboxamide]
AR / CBP ternary complex
  EC50: > 100 nM
VCaP cells
  IC50: ≤ 0.1 nM

## CC(=O)N1CCc2c(c(Nc3ccc(-c4cnn(C)c4)cc3F)nn2C2CN(C3CCN(c4ncc(C(=O)NC5C(C)(C)C(Oc6ccc(C#N)c(Cl)c6)C5(C)C)cn4)CC3)C2)C1 (stereo not drawn) [Compound 5, 2-[4-[3-[5-acetyl-3-[2-fluoro-4-(1-methylpyrazol-4-yl)anilino]-6,7-dihydro-4H-pyrazolo[4,3-c]pyridin-1-yl]azetidin-1-yl]-1-piperidyl]-N-[3-(3-chloro-4-cyano-phenoxy)-2,2,4,4-tetramethyl-cyclobutyl]pyrimidine-5-carboxamide]
AR / CBP ternary complex
  EC50: > 100 nM
VCaP cells
  IC50: > 100 nM

## Cn1c(=O)n(C)c2cc(N3CCCc4cc(-c5ccc(CCC6CCN(c7ncc(C(=O)NC8C(C)(C)C(Oc9ccc(C#N)c(Cl)c9)C8(C)C)cn7)CC6)nc5)ncc43)ccc21 (stereo not drawn) [Compound 234, N-[3-(3-chloro-4-cyano-phenoxy)-2,2,4,4-tetramethyl-cyclobutyl]-2-[4-[2-[5-[1-(1,3-dimethyl-2-oxo-benzimidazol-5-yl)-3,4-dihydro-2H-1,7-naphthyridin-6-yl]-2-pyridyl]ethyl]-1-piperidyl]pyrimidine-5-carboxamide]
AR / CBP ternary complex
  EC50: 1 to 10 nM
VCaP cells
  IC50: > 100 nM

## CC(=O)N1CCc2c(c(N3CCCc4cc(-c5cnn(C)c5)c(C(F)F)cc43)nn2C2CCC(CN3CCN(c4ncc(C(=O)NC5C(C)(C)C(Oc6ccc(C#N)c(Cl)c6)C5(C)C)cn4)CC3)CC2)C1 (stereo not drawn) [Compound 320, 2-[4-[[4-[5-acetyl-3-[7-(difluoromethyl)-6-(1-methylpyrazol-4-yl)-3,4-dihydro-2H-quinolin-1-yl]-6,7-dihydro-4H-pyrazolo[4,3-c]pyridin-1-yl]cyclohexyl]methyl]piperazin-1-yl]-N-[3-(3-chloro-4-cyano-phenoxy)-2,2,4,4-tetramethyl-cyclobutyl]pyrimidine-5-carboxamide]
AR / CBP ternary complex
  EC50: < 1 nM
VCaP cells
  IC50: 0.1 to 1 nM

## COc1cc(OC2C(C)(C)C(NC(=O)c3ccc(N4CC5(CCC(C6CCC(n7nc(N8CCCc9cc(-c%10cnn(C)c%10)c(C(F)F)cc98)c8c7CCN(C(C)=O)C8)CC6)CC5)C4)cc3)C2(C)C)ccc1C#N (stereo not drawn) [Compound 380, 4-[7-[4-[5-acetyl-3-[7-(difluoromethyl)-6-(1-methylpyrazol-4-yl)-3,4-dihydro-2H-quinolin-1-yl]-6,7-dihydro-4Hpyrazolo[4,3-c]pyridin-1-yl]cyclohexyl]-2-azaspiro[3.5]nonan-2-yl]-N-[3-(4-cyano-3-methoxy-phenoxy)-2,2,4,4-tetramethyl-cyclobutyl]benzamide]
AR / CBP ternary complex
  EC50: 1 to 10 nM
VCaP cells
  IC50: 1 to 100 nM

## CC(=O)N1CCc2c(c(N3CCCc4cc(-c5cnn(C)c5)c(C(F)F)cc43)nn2C2CCN(Cc3cn(Cc4ncc(C(=O)NC5C(C)(C)C(Oc6ccc(C#N)c(Cl)c6)C5(C)C)cn4)nn3)CC2)C1 (stereo not drawn) [Compound 188, 2-[[4-[[4-[5-acetyl-3-[7-(difluoromethyl)-6-(1-methylpyrazol-4-yl)-3,4-dihydro-2H-quinolin-1-yl]-6,7-dihydro-4H-pyrazolo[4,3-c]pyridin-1-yl]-1-piperidyl]methyl]triazol-1-yl]methyl]-N-[3-(3-chloro-4-cyano-phenoxy)-2,2,4,4-tetramethyl-cyclobutyl]pyrimidine-5-carboxamide]
AR / CBP ternary complex
  EC50: < 1 nM
VCaP cells
  IC50: ≤ 0.1 nM

## COc1cc(OC2C(C)(C)C(NC(=O)c3ccc(N4CCN(C5CCN(c6ccc(-c7cc8cccc(-c9nn(C%10CCOCC%10)c%10c9CN(C(C)=O)CC%10)c8cn7)cn6)CC5)CC4)cc3)C2(C)C)ccc1C#N (stereo not drawn) [Compound 321, 4-[4-[1-[5-[8-(5-acetyl-1-tetrahydropyran-4-yl-6,7-dihydro-4H-pyrazolo[4,3-c]pyridin-3-yl)-3-isoquinolyl]-2-pyridyl]-4-piperidyl]piperazin-1-yl]-N-[3-(4-cyano-3-methoxy-phenoxy)-2,2,4,4-tetramethyl-cyclobutyl]benzamide]
AR / CBP ternary complex
  EC50: < 1 nM
VCaP cells
  IC50: ≤ 0.1 nM

## CC(=O)N1CCc2c(c(N3CCCc4cc(C#N)c(C(F)F)cc43)nn2C2CCN(CC3C(C)CN(c4ncc(C(=O)NC5C(C)(C)C(Oc6ccc(C#N)c(Cl)c6)C5(C)C)cn4)CC3C)CC2)C1 (stereo not drawn) [Compound 458, 2-[4-[[4-[5-acetyl-3-[6-cyano-7-(difluoromethyl)-3,4-dihydro-2H-quinolin-1-yl]-6,7-dihydro-4H-pyrazolo[4,3-c]pyridin-1-yl]-1-piperidyl]methyl]-3,5-dimethyl-1-piperidyl]-N-[3-(3-chloro-4-cyano-phenoxy)-2,2,4,4-tetramethyl-cyclobutyl]pyrimidine-5-carboxamide]
AR / CBP ternary complex
  EC50: < 1 nM
VCaP cells
  IC50: 0.1 to 1 nM

## CC(=O)N1CCc2c(c(Nc3ccc(-c4cnn(C)c4)cc3F)nn2C2CN(CCC3CCN(c4ncc(C(=O)NC5C(C)(C)C(Oc6ccc(C#N)c(Cl)c6)C5(C)C)cn4)CC3)C2)C1 (stereo not drawn) [Compound 3, 2-[4-[2-[3-[5-acetyl-3-[2-fluoro-4-(1-methylpyrazol-4-yl)anilino]-6,7-dihydro-4H-pyrazolo[4,3-c]pyridin-1-yl]azetidin-1-yl]ethyl]-1-piperidyl]-N-[3-(3-chloro-4-cyano-phenoxy)-2,2,4,4-tetramethyl-cyclobutyl]pyrimidine-5-carboxamide]
AR / CBP ternary complex
  EC50: > 100 nM
VCaP cells
  IC50: > 100 nM

## CC(=O)N1CCc2c(c(-c3cccc4cc(-c5cnn(CCC6CC7(C6)CN(c6ncc(C(=O)NC8C(C)(C)C(Oc9ccc(C#N)c(Cl)c9)C8(C)C)cn6)C7)c5)ncc34)nn2C)C1 (stereo not drawn) [Compound 226, 2-[6-[2-[4-[8-(5-acetyl-1-methyl-6,7-dihydro-4H-pyrazolo[4,3-c]pyridin-3-yl)-3-isoquinolyl]pyrazol-1-yl]ethyl]-2-azaspiro[3.3]heptan-2-yl]-N-[3-(3-chloro-4-cyano-phenoxy)-2,2,4,4-tetramethyl-cyclobutyl]pyrimidine-5-carboxamide]
AR / CBP ternary complex
  EC50: < 1 nM
VCaP cells
  IC50: ≤ 0.1 nM

## CC(=O)N1CCc2c(c(-c3cccc4cc(-c5cnn(CCC6CCN(c7ncc(C(=O)NC8C(C)(C)C(Oc9ccc(C#N)c(Cl)c9)C8(C)C)cn7)CC6)c5)ncc34)nn2C2CCOCC2)C1 (stereo not drawn) [Compound 139, 2-[4-[2-[4-[8-(5-acetyl-1-tetrahydropyran-4-yl-6,7-dihydro-4H-pyrazolo[4,3-c]pyridin-3-yl)-3-isoquinolyl]pyrazol-1-yl]ethyl]-1-piperidyl]-N-[3-(3-chloro-4-cyano-phenoxy)-2,2,4,4-tetramethyl-cyclobutyl]pyrimidine-5-carboxamide]
AR / CBP ternary complex
  EC50: > 100 nM
VCaP cells
  IC50: ≤ 0.1 nM

## CC(=O)N1CCc2c(c(N3CCCc4cc(-c5cnn(C)c5)c(C(F)F)cc43)nn2C2CCN(C[C@H]3CCN(c4ncc(C(=O)NC5C(C)(C)C(Oc6ccc(C#N)c(Cl)c6)C5(C)C)cn4)C[C@H]3C)CC2)C1 (stereo partly drawn) [Compound 364]
AR / CBP ternary complex
  EC50: < 1 nM
VCaP cells
  IC50: ≤ 0.1 nM

## CC(=O)N1CCc2c(c(N3CCCc4cc(-c5cnn(C)c5)c(C(F)F)cc43)nn2C2CCN(C3CCC4(CC3)CC(Oc3ncc(C(=O)NC5C(C)(C)C(Oc6ccc(C#N)c(Cl)c6)C5(C)C)cn3)C4)CC2)C1 (stereo not drawn) [Compound 383, 2-[7-[4-[5-acetyl-3-[7-(difluoromethyl)-6-(1-methylpyrazol-4-yl)-3,4-dihydro-2H-quinolin-1-yl]-6,7-dihydro-4H-pyrazolo[4,3-c]pyridin-1-yl]-1-piperidyl]spiro[3.5]nonan-2-yl]oxy-N-[3-(3-chloro-4-cyano-phenoxy)-2,2,4,4-tetramethyl-cyclobutyl]pyrimidine-5-carboxamide]
AR / CBP ternary complex
  EC50: < 1 nM
VCaP cells
  IC50: 0.1 to 1 nM

## COc1cc(OC2C(C)(C)C(NC(=O)c3ccc(N4CCN(CC5CCC(n6nc(N7CCCc8cc(-c9cnn(C)c9)c(C(F)F)cc87)c7c6CCN(C(C)=O)C7)CC5)CC4)cc3)C2(C)C)ccc1C#N (stereo not drawn) [Compound 319, 4-[4-[[4-[5-acetyl-3-[7-(difluoromethyl)-6-(1-methylpyrazol-4-yl)-3,4-dihydro-2H-quinolin-1-yl]-6,7-dihydro-4H-pyrazolo[4,3-c]pyridin-1-yl]cyclohexyl]methyl]piperazin-1-yl]-N-[3-(4-cyano-3-methoxy-phenoxy)-2,2,4,4-tetramethyl-cyclobutyl]benzamide]
AR / CBP ternary complex
  EC50: < 1 nM
VCaP cells
  IC50: ≤ 0.1 nM
